Data from the NIST ThermoML archive (doi:10.1016/j.jct.2017.06.002).

Test: xn = mol fraction of the nth substance listed
Conditions: 100 kPa, Liquid; for viscosity: Concentric cylinders viscometry; for mass density: Vibrating tube method

COCOCOCOC [2,4,6,8-tetraoxanonane] + COCOCOC
Conditions | mass density [kg/m3] | viscosity [mPa·s]
288.15 K, x2 = 0 | 1037.5 | 1.259
288.15 K, x2 = 0.06 | 1034.7 | 1.278
288.15 K, x2 = 0.12 | 1031.3 | 1.281
288.15 K, x2 = 0.18 | 1029.5 | 1.273
288.15 K, x2 = 0.24 | 1027.1 | 1.261
288.15 K, x2 = 0.35 | 1024.2 | 1.228
288.15 K, x2 = 0.45 | 1021.1 | 1.185
288.15 K, x2 = 0.55 | 1018.1 | 1.142
288.15 K, x2 = 0.65 | 1014.3 | 1.096
288.15 K, x2 = 0.74 | 1010.1 | 1.051
288.15 K, x2 = 0.83 | 1006.2 | 1.001
288.15 K, x2 = 0.92 | 1002.3 | 0.9612
293.15 K, x2 = 0 | 1030.2 | 1.166
293.15 K, x2 = 0.06 | 1028.4 | 1.174
293.15 K, x2 = 0.12 | 1025.9 | 1.177
293.15 K, x2 = 0.18 | 1024.5 | 1.17
293.15 K, x2 = 0.24 | 1022.7 | 1.159
293.15 K, x2 = 0.35 | 1019.5 | 1.128
293.15 K, x2 = 0.45 | 1016.1 | 1.093
293.15 K, x2 = 0.55 | 1012.8 | 1.058
293.15 K, x2 = 0.65 | 1009.1 | 1.021
293.15 K, x2 = 0.74 | 1005.3 | 0.9894
293.15 K, x2 = 0.83 | 1001.7 | 0.9628
293.15 K, x2 = 0.92 | 998.2 | 0.9384
298.15 K, x2 = 0 | 1023.4 | 1.084
298.15 K, x2 = 0.06 | 1022.3 | 1.093
298.15 K, x2 = 0.12 | 1021.2 | 1.098
298.15 K, x2 = 0.18 | 1019.5 | 1.093
298.15 K, x2 = 0.24 | 1018.1 | 1.084
298.15 K, x2 = 0.35 | 1014.5 | 1.059
298.15 K, x2 = 0.45 | 1011.2 | 1.032
298.15 K, x2 = 0.55 | 1007.8 | 1.002
298.15 K, x2 = 0.65 | 1004.1 | 0.9754
298.15 K, x2 = 0.74 | 1000.5 | 0.9543
298.15 K, x2 = 0.83 | 996.4 | 0.9353
298.15 K, x2 = 0.92 | 993 | 0.9189
303.15 K, x2 = 0 | 1016.6 | 1.028
303.15 K, x2 = 0.06 | 1016.4 | 1.038
303.15 K, x2 = 0.12 | 1015.9 | 1.042
303.15 K, x2 = 0.18 | 1014.5 | 1.037
303.15 K, x2 = 0.24 | 1013.1 | 1.031
303.15 K, x2 = 0.35 | 1009.9 | 1.01
303.15 K, x2 = 0.45 | 1006.5 | 0.9913
303.15 K, x2 = 0.55 | 1003.2 | 0.9667
303.15 K, x2 = 0.65 | 999.3 | 0.9452
303.15 K, x2 = 0.74 | 995.5 | 0.9283
303.15 K, x2 = 0.83 | 991.3 | 0.9135
303.15 K, x2 = 0.92 | 987.6 | 0.9007
308.15 K, x2 = 0 | 1011 | 0.9921
308.15 K, x2 = 0.06 | 1011.01 | 0.9966
308.15 K, x2 = 0.12 | 1010.7 | 0.9977
308.15 K, x2 = 0.18 | 1010.32 | 0.9959
308.15 K, x2 = 0.24 | 1008.6 | 0.9894
308.15 K, x2 = 0.35 | 1005.6 | 0.9741
308.15 K, x2 = 0.45 | 1002.1 | 0.9577
308.15 K, x2 = 0.55 | 998.9 | 0.938
308.15 K, x2 = 0.65 | 995 | 0.9204
308.15 K, x2 = 0.74 | 990.8 | 0.9067
308.15 K, x2 = 0.83 | 986.8 | 0.8938
308.15 K, x2 = 0.92 | 982.8 | 0.8828
313.15 K, x2 = 0 | 1005 | 0.9521
313.15 K, x2 = 0.06 | 1006.5 | 0.9668
313.15 K, x2 = 0.12 | 1007 | 0.9724
313.15 K, x2 = 0.18 | 1006.3 | 0.9671
313.15 K, x2 = 0.24 | 1005.5 | 0.9597
313.15 K, x2 = 0.35 | 1002.4 | 0.9453
313.15 K, x2 = 0.45 | 998.3 | 0.9308
313.15 K, x2 = 0.55 | 994.9 | 0.916
313.15 K, x2 = 0.65 | 990.8 | 0.9008
313.15 K, x2 = 0.74 | 987 | 0.8876
313.15 K, x2 = 0.83 | 983 | 0.8758
313.15 K, x2 = 0.92 | 979 | 0.8652

COCOCOCOCOC [2,4,6,8,10-pentaoxaundecane] + COCOCOC
Conditions | mass density [kg/m3] | viscosity [mPa·s]
288.15 K, x2 = 0 | 1078.8 | 2.207
288.15 K, x2 = 0.12 | 1069.8 | 1.99
288.15 K, x2 = 0.24 | 1061.6 | 1.788
288.15 K, x2 = 0.35 | 1053.5 | 1.608
288.15 K, x2 = 0.45 | 1045.4 | 1.449
288.15 K, x2 = 0.55 | 1037.2 | 1.318
288.15 K, x2 = 0.65 | 1029 | 1.209
288.15 K, x2 = 0.74 | 1021 | 1.119
288.15 K, x2 = 0.83 | 1013.2 | 1.043
288.15 K, x2 = 0.92 | 1005.8 | 0.977
293.15 K, x2 = 0 | 1073.3 | 2.015
293.15 K, x2 = 0.12 | 1064.6 | 1.835
293.15 K, x2 = 0.24 | 1056.5 | 1.669
293.15 K, x2 = 0.35 | 1048.6 | 1.518
293.15 K, x2 = 0.45 | 1040.6 | 1.378
293.15 K, x2 = 0.55 | 1032.6 | 1.265
293.15 K, x2 = 0.65 | 1024.6 | 1.166
293.15 K, x2 = 0.74 | 1016.7 | 1.082
293.15 K, x2 = 0.83 | 1009 | 1.019
293.15 K, x2 = 0.92 | 1001.8 | 0.962
298.15 K, x2 = 0 | 1068.2 | 1.848
298.15 K, x2 = 0.12 | 1059.7 | 1.697
298.15 K, x2 = 0.24 | 1051.9 | 1.557
298.15 K, x2 = 0.35 | 1043.9 | 1.43
298.15 K, x2 = 0.45 | 1036 | 1.315
298.15 K, x2 = 0.55 | 1028 | 1.212
298.15 K, x2 = 0.65 | 1020.1 | 1.125
298.15 K, x2 = 0.74 | 1012.1 | 1.05
298.15 K, x2 = 0.83 | 1004.4 | 0.9918
298.15 K, x2 = 0.92 | 996.8 | 0.943
303.15 K, x2 = 0 | 1063.4 | 1.703
303.15 K, x2 = 0.12 | 1055.2 | 1.575
303.15 K, x2 = 0.24 | 1047.3 | 1.452
303.15 K, x2 = 0.35 | 1039.4 | 1.344
303.15 K, x2 = 0.45 | 1031.5 | 1.243
303.15 K, x2 = 0.55 | 1023.5 | 1.153
303.15 K, x2 = 0.65 | 1015.4 | 1.079
303.15 K, x2 = 0.74 | 1007.4 | 1.017
303.15 K, x2 = 0.83 | 999.4 | 0.97
303.15 K, x2 = 0.92 | 991.7 | 0.9255
308.15 K, x2 = 0 | 1059.1 | 1.576
308.15 K, x2 = 0.12 | 1050.9 | 1.466
308.15 K, x2 = 0.24 | 1043 | 1.361
308.15 K, x2 = 0.35 | 1035 | 1.264
308.15 K, x2 = 0.45 | 1027.2 | 1.175
308.15 K, x2 = 0.55 | 1019.2 | 1.099
308.15 K, x2 = 0.65 | 1011.3 | 1.036
308.15 K, x2 = 0.74 | 1003.2 | 0.9843
308.15 K, x2 = 0.83 | 995 | 0.943
308.15 K, x2 = 0.92 | 986.9 | 0.9043
313.15 K, x2 = 0 | 1055.2 | 1.464
313.15 K, x2 = 0.12 | 1047.2 | 1.371
313.15 K, x2 = 0.24 | 1039.4 | 1.278
313.15 K, x2 = 0.35 | 1031.5 | 1.194
313.15 K, x2 = 0.45 | 1023.7 | 1.117
313.15 K, x2 = 0.55 | 1015.8 | 1.05
313.15 K, x2 = 0.65 | 1007.9 | 0.9955
313.15 K, x2 = 0.74 | 999.8 | 0.9504
313.15 K, x2 = 0.83 | 991.3 | 0.916
313.15 K, x2 = 0.92 | 982.8 | 0.8847
